Reference: US11384048B2, “Aromatic vinyl or aromatic ethyl derivative, preparation method therefor, intermediate, pharmaceutical composition, and application” (GUANGZHOU MAXINOVEL PHARMACEUTICALS CO., LTD., priority 2017, dated 2022)
pIC50: −log10 of the molar value.

These molecules were tested against PD-1/PD-L1 (Homo sapiens (Human), UniProt Q9NZQ7) (assay: Homogenouse Time-Resolved Fluorescence (HTRF) binding assay PD-1/PD-L1). Details: CisBio kit #64CUS000C-1.
Protocol: Homogenouse Time-Resolved Fluorescence (HTRF) binding assay was used to determine the binding activity of the compound of the present disclosure to PD-1/PD-L1.
The purchased kit (CisBio, #64CUS000C-1) contained the reagents required for experiments such as PD-1, PD-L1, anti-tag1-Eu, Anti-tag2-XL665, Dilute Buffer and Detection Buffer.
1. The compound was formulated to 10 concentrations with a three-fold concentration gradient with 100% DMSO.
2. The solution of the compound in DMSO was added to Dilute Buffer, and mixed evenly and then transferred to a 96-well plate.
3. PD-L1 was diluted with Dilute Buffer and added to the 96-well plate above.
4. PD-1 was diluted with Dilute Buffer, then added to the 96-well plate above and incubated at room temperature for 30 minutes.
5. One portion of anti-tag1-Eu and one portion of anti-tag2-XL665 were added to Detection Buffer, mixed evenly and transferred to the 96-well plate above.
6. The mixed solution in the 96-well plate were incubated at room temperature for 1 to 24 hours.
7. HTRF values were read by Envision.

Sequence of PD-1/PD-L1 (Q9NZQ7 19-238): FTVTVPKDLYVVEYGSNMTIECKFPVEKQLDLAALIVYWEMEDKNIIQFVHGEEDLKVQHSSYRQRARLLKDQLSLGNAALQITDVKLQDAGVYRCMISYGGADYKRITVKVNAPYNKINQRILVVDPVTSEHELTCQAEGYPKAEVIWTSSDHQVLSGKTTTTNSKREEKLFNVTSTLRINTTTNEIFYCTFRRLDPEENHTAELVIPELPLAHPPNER

SMILES | pIC50
Cc1c(/C=C/c2cc(CN[C@@](C)(CO)C(=O)O)ccc2C(F)(F)F)cccc1-c1ccc2nccn2c1 [Compound 36] | < 5.00
Cc1c(/C=C/c2cc(CN[C@@](C)(CO)C(=O)O)ccc2C(F)(F)F)cccc1-c1cn2ccnc2cn1 [Compound 37] | 5.89
Cc1nc2ccc(-c3cccc(/C=C/c4cc(CN[C@@](C)(CO)C(=O)O)ccc4C(F)(F)F)c3C)cc2o1 [Compound 43, (S,E)-3-hydroxy-2-methyl-2-(3-(2-methyl-3-(2-methylbenzo[d]oxazol-6-yl)-styryl)-4-(trifluoromethyl)benzylamino)-3-hydroxy-2-methylpropanoic acid] | 6.27
